Data: patent US7037665B1, “Compositions comprising SNORF36 receptor compounds” (H. Lundbeck A/S, priority 1999, dated 2006)
Entries after “also recorded” stand apart in the source; their conditions may differ.

Assays:
SNORF36a [1] = target: T1, SNORF36a (Homo sapiens, UniProt Q9UHM6); assay: Intracellular Ca2+ mobilization (FLIPR) in human SNORF36a-transfected Cos-7 cells; type: cell-based; details: for EC50: photobleached SNORF36a-transfected Cos-7 cells, FLIPR, n=3
T1 sequence (Q9UHM6 1-478): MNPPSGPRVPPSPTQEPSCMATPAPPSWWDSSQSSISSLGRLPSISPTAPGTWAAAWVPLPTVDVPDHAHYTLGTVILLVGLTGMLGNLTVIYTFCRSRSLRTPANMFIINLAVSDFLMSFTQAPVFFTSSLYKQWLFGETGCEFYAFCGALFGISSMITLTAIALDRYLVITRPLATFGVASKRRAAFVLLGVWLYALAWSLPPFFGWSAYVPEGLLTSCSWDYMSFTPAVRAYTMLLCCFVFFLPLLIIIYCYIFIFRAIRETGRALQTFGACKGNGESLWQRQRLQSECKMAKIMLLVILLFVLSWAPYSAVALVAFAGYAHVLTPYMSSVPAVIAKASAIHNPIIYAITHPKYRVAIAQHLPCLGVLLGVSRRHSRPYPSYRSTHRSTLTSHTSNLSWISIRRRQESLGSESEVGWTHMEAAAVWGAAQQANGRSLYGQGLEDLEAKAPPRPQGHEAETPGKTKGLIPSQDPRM
Method: The intracellular free calcium (Ca^2+) concentration may be measured by the Fluorescence Imager Plate Reader (FLIPR™).
Cells transfected with appropriate DNA as described earlier were plated into clear, flat-bottom, black-wall 96-well plates (Costar) at a density of 80,000-150,000 cells per well and allowed to incubate for 24 hr at 5% CO2, 37° C. Whenever necessary, the cells were placed in a waterbath maintained at 37° C. and were exposed to a lamp light (50W) placed at a distance of approximately 30 cm, 90 to 120 min before the imaging. The growth medium was aspirated and 100 μl of loading medium containing fluo-3 dye was added to each well 60 min before the imaging. The loading medium contained: Hank's BSS (without phenol red) (Gibco), 20 mM HEPES (Sigma), 0.1 or 1% BSA (Sigma), dye/pluronic acid mixture (e.g. 1 mM Flou-3, AM (Molecular Probes) and 10% pluronic acid (Molecular Probes) mixed immediately before use), and 2.5 mM probenecid (Sigma) (prepared fresh). The cells were allowed to incubate for about 1 hour at 5% CO2, 37° C.
Before or during the incubation of cells with the dye-loading medium, the test compound plate was prepared. Since retinoids are chemically unstable and can undergo rapid photoisomerization (Hu et al., 1994), care was taken to weigh, dissolve and prepare appropriate concentrations of the test compound under photographic darkroom lights. The test compounds were diluted in wash buffer (Hank's BSS (without phenol red), 20 mM HEPES, 2.5 mM probenecid) to a 4× final concentration and aliquoted into a clear v-bottom plate (Nunc). The test compounds were protected from light till their addition to cells. Following the incubation with the dye-loading medium, the cells were washed to remove the excess dye. A Denley plate washer was used to gently wash the cells 4 times and leave a 100 μl final volume of wash buffer in each well. The cell plate was placed in the center tray and the test compound plate was placed in the right tray of the FLIPR. The FLIPR software was setup for the experiment, the experiment was run and the data were collected. For the agonist experiment, the sampling rate in the FLIPR was every 1 sec for the first minute and every 2 sec for the next two minutes. In this paradigm, the test compound was added after recording base line for the first 10 sec. For the antagonist experiment, the sampling rate in the FLIPR was every 1 sec for the first minute, every 6 sec for the next 5 minutes, every 1 sec for the next one minute followed by every 2 sec next two minutes. To evaluate the antagonist activity, the test compound was added to the cells 10 sec after commencing the recording and the agonist was added at 310 sec of the recording. Baseline subtraction and negative control corrections were performed on the traces. The collected data were then analyzed using the Excel spreadsheet program.

[2] = test system: Control oocytes, not injected with SNORF36a mRNA; assay: Light-elicited currents in control Xenopus oocytes not injected with SNORF36a mRNA; type: cell-based, Xenopus laevis; details: control uninjected oocytes pre-incubated with ligand (100 nM, 24 h), n=10 oocytes
Method: (§1) In the present invention, oocytes were harvested from Xenopus laevis and injected with mRNA transcripts as previously described (Quick and Lester, 1994; Smith et al., 1997). SNORF36a RNA transcripts were synthesized using the T7 polymerase (“Message Machine”, Ambion) from the plasmid BO109 linearized with NotI. Oocytes were injected with 5-25 ng synthetic RNA and incubated for 3-8 days at 17° C. Dual electrode voltage clamp (Axon Instruments Inc.) was performed using 3 M KCl-filled glass microelectrodes having resistances of 1-2 MOhm. Unless otherwise specified, oocytes were voltage clamped at a holding potential of −80 mV. During recordings, oocytes were bathed in continuously flowing (1-3 ml/min) medium containing 96 mM NaCl, 2 mM KCl, 1.8 mM CaCl2, 1 mM MgCl2, 5 mM HEPES, pH 7.5 (ND96), and the appropriate ligand.
Experiments were carried out under minimal light conditions which required compound weighing, final dilutions and oocyte recordings to be performed under photographic darkroom lights (“Brightlab Junior” safelight). In some cases, the ligands were briefly exposed to room light (5-10 min.) during the weighing procedure. For eliciting physiological responses from oocytes, the light stimulus was a 60 W tungsten lamp set at a distance of 30 cm from the oocyte. […] All values are expressed as mean ± standard error of the mean.

SNORF36a [3] = target: T1, SNORF36a; assay: Light-elicited currents in voltage-clamped Xenopus oocytes expressing SNORF36a; type: cell-based; parameters: expressed in transfected cells; host or cells: Xenopus laevis oocytes injected with synthetic mRNA transcribed from plasmid BO109; details: pre-incubated in the dark 24-48 h at 100 nM in ND96
Method: as §1
Experiments were carried out under minimal light conditions which required compound weighing, final dilutions and oocyte recordings to be performed under photographic darkroom lights (“Brightlab Junior” safelight). In some cases, the ligands were briefly exposed to room light (5-10 min.) during the weighing procedure. For eliciting physiological responses from oocytes, the light stimulus was a 60 W tungsten lamp set at a distance of 30 cm from the oocyte. Drugs were applied either by superfusion, switching from a series of gravity fed perfusion lines, or by local perfusion from a 10 μl glass capillary tube fixed at a distance of 0.5 mm from the oocyte. Experiments were carried out at room temperature. All values are expressed as mean ± standard error of the mean.

SNORF36a [4] = target: T1, SNORF36a; assay: Inositol phosphate assay (phosphoinositide hydrolysis) in human SNORF36a-transfected Cos-7 cells; type: cell-based
Method: (§2) Human SNORF36a receptor-mediated activation of the inositol phosphate (IP) second messenger pathways was assessed by radiometric measurement of IP products.
(§3) Cells were plated at a density of 70,000 cells per well and allowed to incubate for 24 hours. The cells were then labeled with 0.5 μCi [^3H]myo-inositol overnight at 37° C., 5% CO2. Immediately before the assay, the medium was removed and replaced with 180 μL of Phosphate-Buffered Saline (PBS) containing 10 mM LiCl. The plates were then incubated for 20 min at 37° C., 5% CO2. Following the incubation, the cells were challenged with agonist (20 μl/well; 10× concentration) for 30 min at 37° C. and were simultaneously either exposed or not to a lamp light (50W) placed at approximately 30 cm distance from the cells. The challenge was terminated by the addition of 100 μL of 5% v/v trichloroacetic acid, followed by incubation at 4° C. for greater than 30 minutes. Total IPs were isolated from the lysate by ion exchange chromatography. Briefly, the lysed contents of the wells were transferred to a Multiscreen HV filter plate (Millipore) containing Dowex AGI-X8 (200-400 mesh, formate form). The filter plates were prepared adding 100 μL of Dowex AG1-X8 suspension (50% v/v, water: resin) to each well. […] 200 μL of scintillation cocktail was added to each well, and the radioactivity was determined by liquid scintillation counting.

[5] = test system: vector-transfected Cos-7 cells; assay: Inositol phosphate assay in empty vector-transfected Cos-7 cells; type: cell-based; details: vector-transfected Cos-7 cells exposed to lamp light
Method: as §2, §3

[6] = antagonist at 10 μM, hSNORF36a-transfected Cos-7 cells, n=2

EC50 (SNORF36a [1]) [nM]	SMILES	response to light [2]	response to light stimulus after pre-incubation (SNORF36a [3])	other results
152	CC1=C(/C=C/C(C)=C\C=C\C(C)=C\C=O)C(C)(C)CCC1 [9-cis-retinal]	–	–	–
477	CC1=C(/C=C/C(C)=C/C=C/C(C)=C/C=O)C(C)(C)CCC1 [13-cis-retinal]	did not respond to light	rapidly desensitizing Cl^− currents	–
–	CC1=C(/C=C/C(C)=C/C=C/C(C)=C/C(=O)O)C(C)(C)CCC1 [ATRA, all-trans-retinoic acid]	–	rapidly desensitizing Cl^− currents	–
263	CC1=C(/C=C/C(C)=C/C=C/C(C)=C/C=O)C(C)(C)CCC1 [all-trans-retinal]	fails to respond to light; also recorded: did not respond to light	rapidly desensitizing Cl^− currents	3H-IP accumulation (SNORF36a [4]; SNORF36a-transfected Cos-7 cells exposed to lamp light, n=2): Concentration-dependent increase; 3H-IP levels (SNORF36a [4]; SNORF36a-transfected Cos-7 cells not exposed to light, n=1): did not change; 3H-IP accumulation [5]: not in vector-transfected cells
–	CC(=O)/C=C/C1=C(C)CCCC1(C)C [β-ionone]	–	–	nature of the antagonism (SNORF36a [1]; 10 μM against all-trans-retinal and 9-cis-retinal, hSNORF36a-transfected Cos-7 cells): insurmountable; antagonism of 9-cis-retinal-induced Ca2+ mobilization (SNORF36a [1]; [6]): significantly antagonized; antagonism of all-trans-retinal-induced Ca2+ mobilization (SNORF36a [1]; [6]): significantly antagonized
